According to ChEMBL document CHEMBL1132042, “Macrocyclic hydroxamate inhibitors of matrix metalloproteinases and TNF-alpha production” (Bioorg Med Chem Lett, 1999):

How the values were obtained:
[1] = organism: Homo sapiens; experiment: Compound was tested for its ability to suppress the release of TNF-alpha (TNF-WBA) in human whole blood after stimulation with LPS.; type: functional, organism-based
[2] = target: T1, Interstitial collagenase (Homo sapiens, UniProt P03956); experiment: Inhibition of MMP-1 (human fibroblast collagenase)
T1 sequence (P03956 whole entry): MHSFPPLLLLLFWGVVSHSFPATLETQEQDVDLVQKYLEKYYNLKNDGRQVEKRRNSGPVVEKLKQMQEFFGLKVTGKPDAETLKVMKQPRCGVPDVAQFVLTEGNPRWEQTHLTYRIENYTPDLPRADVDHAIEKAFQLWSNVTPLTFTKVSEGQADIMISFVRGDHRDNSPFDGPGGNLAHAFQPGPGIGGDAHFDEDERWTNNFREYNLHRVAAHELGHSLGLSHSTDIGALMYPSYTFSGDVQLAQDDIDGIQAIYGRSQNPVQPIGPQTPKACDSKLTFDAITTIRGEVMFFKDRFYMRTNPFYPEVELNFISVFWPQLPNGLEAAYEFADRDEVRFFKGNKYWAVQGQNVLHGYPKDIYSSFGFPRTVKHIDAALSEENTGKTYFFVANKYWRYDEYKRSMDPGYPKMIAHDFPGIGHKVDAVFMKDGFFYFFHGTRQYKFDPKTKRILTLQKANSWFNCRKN

[3] = target: Matrix metalloproteinase-9 (Homo sapiens, UniProt P14780); experiment: Inhibition of MMP-9 (matrix metalloprotease-9, gelatinase B)
[4] = target: Stromelysin-1 (Homo sapiens, UniProt P08254); experiment: Inhibition of MMP-3 (human fibroblast stromelysin)
Stromelysin-1, sequence (P08254 whole entry): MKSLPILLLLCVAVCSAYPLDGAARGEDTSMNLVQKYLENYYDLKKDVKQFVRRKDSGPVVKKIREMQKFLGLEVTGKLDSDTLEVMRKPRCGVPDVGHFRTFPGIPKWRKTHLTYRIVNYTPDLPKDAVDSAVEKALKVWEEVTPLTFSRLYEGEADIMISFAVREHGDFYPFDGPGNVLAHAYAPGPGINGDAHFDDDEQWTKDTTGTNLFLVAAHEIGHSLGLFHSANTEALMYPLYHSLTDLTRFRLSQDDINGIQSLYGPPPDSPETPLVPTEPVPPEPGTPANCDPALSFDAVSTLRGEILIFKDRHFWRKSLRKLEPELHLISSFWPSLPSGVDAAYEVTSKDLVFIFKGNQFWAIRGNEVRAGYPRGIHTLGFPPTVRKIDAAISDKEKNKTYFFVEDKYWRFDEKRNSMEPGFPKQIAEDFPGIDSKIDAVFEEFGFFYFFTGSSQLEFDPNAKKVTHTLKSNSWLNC

Matrix metalloproteinase-9, sequence (P14780 whole entry): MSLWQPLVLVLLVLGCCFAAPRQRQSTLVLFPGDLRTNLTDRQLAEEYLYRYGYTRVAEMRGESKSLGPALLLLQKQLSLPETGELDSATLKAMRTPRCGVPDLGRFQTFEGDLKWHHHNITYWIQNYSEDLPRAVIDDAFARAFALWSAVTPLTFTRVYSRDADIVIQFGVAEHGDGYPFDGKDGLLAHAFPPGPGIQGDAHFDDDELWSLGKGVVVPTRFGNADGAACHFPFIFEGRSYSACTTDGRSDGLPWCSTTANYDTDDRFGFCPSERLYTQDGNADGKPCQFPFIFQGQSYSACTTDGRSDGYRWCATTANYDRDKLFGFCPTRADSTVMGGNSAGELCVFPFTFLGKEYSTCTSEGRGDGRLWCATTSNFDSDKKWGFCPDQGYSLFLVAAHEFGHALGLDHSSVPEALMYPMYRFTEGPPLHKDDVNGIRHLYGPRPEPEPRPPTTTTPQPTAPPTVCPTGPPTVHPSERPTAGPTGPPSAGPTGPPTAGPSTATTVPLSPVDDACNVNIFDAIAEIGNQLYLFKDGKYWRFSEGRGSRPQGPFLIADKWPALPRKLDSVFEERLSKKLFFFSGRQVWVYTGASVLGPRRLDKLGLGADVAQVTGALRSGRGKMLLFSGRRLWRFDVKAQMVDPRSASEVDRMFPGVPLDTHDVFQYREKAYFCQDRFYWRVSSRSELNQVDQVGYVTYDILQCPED

SMILES	IC50 [1] [nM]	Ki [2] [nM]	Ki [3] [nM]	Ki [4] [nM]
CNC(=O)[C@@H]1CCCCN(S(=O)(=O)c2cn(C)cn2)CCC[C@H](C(=O)NO)[C@@H](CC(C)C)C(=O)N1	1400	< 1	2.7	12
CNC(=O)[C@@H]1CCCCN(S(=O)(=O)C(F)(F)F)CCC[C@H](C(=O)NO)[C@@H](CC(C)C)C(=O)N1	1300	4	< 1	118
CNC(=O)[C@@H]1CCCCNCCC[C@H](C(=O)NO)[C@@H](CC(C)C)C(=O)N1	2700	< 1	12.8	
CNC(=O)[C@@H]1CCCCN(S(=O)(=O)c2ccccc2)CCC[C@H](C(=O)NO)[C@@H](CC(C)C)C(=O)N1	1300	< 1	< 1	3.4
CNC(=O)[C@@H]1CCCCN(S(=O)(=O)c2ccc(N)cc2)CCC[C@H](C(=O)NO)[C@@H](CC(C)C)C(=O)N1	950	< 1	1.6	99
CNC(=O)[C@@H]1CCCCN(S(=O)(=O)c2c(C)cc(C)cc2C)CCC[C@H](C(=O)NO)[C@@H](CC(C)C)C(=O)N1	1600	2.3	< 1	15
CNC(=O)[C@@H]1CCCCN(C(=O)OC(C)(C)C)CCC[C@H](C(=O)NO)[C@@H](CC(C)C)C(=O)N1	1400	< 1	< 1	3
